Experimental data taken from US6783949B1, “Processes for determining whether a test substance contains lipases or lipase inhibitors” (Aventis Pharma Deutschland GmbH, priority 1999, dated 2004).

How the values were obtained:
HSL = target: T1, HSL (Rattus norvegicus, UniProt P15304); test: Tributyrin assay; format: biochemical; details: Example 6, Table 6; n=5, mean±SD
T1 construct: The partially purified HSL can be stored at −70° C. for 4 to 6 weeks; from tissue; host or cells: rat epididymal fat cells (male Wistar rats)
T1 sequence (P15304 1-768 isoform P15304-2): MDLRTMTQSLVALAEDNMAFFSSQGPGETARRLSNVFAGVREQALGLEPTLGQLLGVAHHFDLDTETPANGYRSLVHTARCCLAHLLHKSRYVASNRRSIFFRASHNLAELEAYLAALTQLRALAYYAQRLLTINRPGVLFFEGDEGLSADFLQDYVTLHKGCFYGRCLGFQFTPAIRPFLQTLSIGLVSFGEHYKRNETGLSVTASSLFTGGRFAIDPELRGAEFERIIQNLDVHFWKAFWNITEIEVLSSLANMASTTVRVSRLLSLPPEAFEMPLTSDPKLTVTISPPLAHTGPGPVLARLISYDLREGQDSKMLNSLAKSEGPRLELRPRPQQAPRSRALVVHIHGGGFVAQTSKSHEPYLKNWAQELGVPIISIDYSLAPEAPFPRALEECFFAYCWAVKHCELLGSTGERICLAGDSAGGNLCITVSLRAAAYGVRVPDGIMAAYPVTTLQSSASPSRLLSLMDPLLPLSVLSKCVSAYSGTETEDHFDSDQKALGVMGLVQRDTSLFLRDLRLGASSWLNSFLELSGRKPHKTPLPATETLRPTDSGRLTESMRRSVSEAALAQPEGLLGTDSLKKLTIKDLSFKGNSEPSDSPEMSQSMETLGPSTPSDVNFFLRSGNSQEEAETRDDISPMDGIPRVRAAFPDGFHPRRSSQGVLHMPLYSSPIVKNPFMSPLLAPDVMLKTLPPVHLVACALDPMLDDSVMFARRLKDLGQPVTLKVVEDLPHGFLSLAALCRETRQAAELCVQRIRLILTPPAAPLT
Description: Isolated rat fat cells are obtained from epididymal fatty tissue from untreated male rats (Wistar, 220-250 g) by collagenase treatment according to published processes. The fat cells from 10 rats are washed three times by flotation with 50 ml each of homogenization buffer ([…], pH 7.4, 0.25 M sucrose, 1 mM ethylenediamine-N,N,N′,N′-tetraacetic acid (EDTA), 1 mM dithiothreitol (DTT), 10 μg/ml of leupeptin, 10 μg/ml of antipain, 20 μg/ml of pepstatin) and finally taken up in 10 ml of homogenization buffer. The fat cells are homogenized in a Teflon-in-glass homogenizer (Braun-Melsungen) by 10 strokes at 1500 rpm and 15° C. The homogenizate is centrifuged (Sorvall SM24 tubes, 5000 rpm, 10 min, 4° C.). […]
For the preparation of the substrate, 5 μCi of [1-^14C]tributyrin (in toluene) are added to 1 ml of 20 mM unlabeled tributyrin (in acetonitrile). […] An equivalent volume (1 ml) of the upper phase is taken and the radioactivity is determined by liquid scintillation measurement.
Substances are customarily tested in four independent batches. The inhibition of the enzymatic activity of the HSL by a test substance is determined by comparison with an uninhibited control reaction. The IC50 value is calculated by means of an inhibition curve using at least 10 concentrations of the test substance. […]

pancreatic lipase = target: T2, pancreatic lipase (Homo sapiens, UniProt P16233); test: Cleavage of NAG by pancreatic lipase; format: biochemical; details: for Increase in the absorption at 481 nm: Pancreatic lipase, 60 min, NAG 0.05 mg/ml
T2 sequence (P16233 17-465): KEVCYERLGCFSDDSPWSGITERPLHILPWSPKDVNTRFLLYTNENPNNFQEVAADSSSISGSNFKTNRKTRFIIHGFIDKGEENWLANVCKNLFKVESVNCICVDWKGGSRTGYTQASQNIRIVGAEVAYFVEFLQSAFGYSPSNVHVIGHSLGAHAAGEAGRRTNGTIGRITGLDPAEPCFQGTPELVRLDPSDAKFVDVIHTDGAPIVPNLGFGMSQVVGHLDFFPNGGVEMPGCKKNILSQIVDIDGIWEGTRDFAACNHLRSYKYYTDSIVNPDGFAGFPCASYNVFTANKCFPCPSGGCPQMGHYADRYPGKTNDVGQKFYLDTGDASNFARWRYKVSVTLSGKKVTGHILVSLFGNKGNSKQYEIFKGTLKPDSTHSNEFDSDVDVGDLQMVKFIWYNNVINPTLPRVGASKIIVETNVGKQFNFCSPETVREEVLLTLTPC

SMILES	IC50 (HSL) [µM]	Increase in the absorption at 481 nm (pancreatic lipase; enzyme 10 arb. units) [arb. units]	Increase in the absorption at 481 nm (pancreatic lipase; enzyme 20 arb. units) [arb. units]	Increase in the absorption at 481 nm (pancreatic lipase; enzyme 50 arb. units) [arb. units]	Increase in the absorption at 481 nm (pancreatic lipase; enzyme 75 arb. units) [arb. units]	Increase in the absorption at 481 nm (pancreatic lipase; enzyme 100 arb. units) [arb. units]	Increase in the absorption at 481 nm (pancreatic lipase; enzyme 150 arb. units) [arb. units]	Increase in the absorption at 481 nm (pancreatic lipase; enzyme 200 arb. units) [arb. units]	Increase in the absorption at 481 nm (pancreatic lipase; enzyme 250 arb. units) [arb. units]	Increase in the absorption at 481 nm (pancreatic lipase; enzyme 300 arb. units) [arb. units]	Increase in the absorption at 481 nm (pancreatic lipase; enzyme 400 arb. units) [arb. units]	Activity relative to HSL (pancreatic lipase; pancreatic lipase, conditions optimized for HSL) [%]
O=C(CCCCCCCCCCCNc1ccc([N+](=O)[O-])c2nonc12)OCC(O)CO (racemic) [Compound 3]	> 100											
O=C(CCCCCCCCCCCNc1ccc([N+](=O)[O-])c2nonc12)OCC(O)CO (stereo not drawn) [Compound (3)]		9 ± 2	14 ± 4	39 ± 7	64 ± 10	92 ± 14	140 ± 18	188 ± 21	234 ± 30	265 ± 34	286 ± 32	1
